# Assay results taken from ChEMBL document CHEMBL4613211, “Aurone: A biologically attractive scaffold as anticancer agent” (Eur J Med Chem, 2019).
# Key:
# Type in all cases: functional
# [1] = tested on: MOLT-4; experiment: Growth inhibition of human MOLT4 cells at 10 uM after 48 hrs by sulforhodamine B assay relative to control; conditions: MOLT-4, 48 h, read-out: GI
# [2] = tested on: RPMI-8226; experiment: Growth inhibition of human RPMI8226 cells at 10 uM after 48 hrs by sulforhodamine B assay relative to control; conditions: RPMI-8226, 48 h, read-out: GI
# [3] = tested on: SR; experiment: Growth inhibition of human SR cells at 10 uM after 48 hrs by sulforhodamine B assay relative to control; conditions: read-out: GI
# [4] = tested on: EKVX; experiment: Growth inhibition of human EKVX cells at 10 uM after 48 hrs by sulforhodamine B assay relative to control; conditions: read-out: GI
# [5] = tested on: NCI-H226; experiment: Growth inhibition of human NCI-H226 cells at 10 uM after 48 hrs by sulforhodamine B assay relative to control; conditions: NCI-H226, 48 h, read-out: GI
# [6] = tested on: NCI-H522; experiment: Growth inhibition of human NCI-H522 cells at 10 uM after 48 hrs by sulforhodamine B assay relative to control; conditions: NCI-H522, 48 h, read-out: GI
# [7] = tested on: HCC 2998; experiment: Growth inhibition of human HCC2998 cells at 10 uM after 48 hrs by sulforhodamine B assay relative to control; conditions: HCC 2998, 48 h, read-out: GI
# [8] = tested on: HCT-116; experiment: Growth inhibition of human HCT116 cells at 10 uM after 48 hrs by sulforhodamine B assay relative to control; conditions: HCT-116, 48 h, read-out: GI
# [9] = tested on: HT-29; experiment: Growth inhibition of human HT-29 cells at 10 uM after 48 hrs by sulforhodamine B assay relative to control; conditions: HT-29, 48 h, read-out: GI
# [10] = tested on: SW-620; experiment: Growth inhibition of human SW620 cells at 10 uM after 48 hrs by sulforhodamine B assay relative to control; conditions: SW-620, 48 h, read-out: GI
# [11] = tested on: SF-268; experiment: Growth inhibition of human SF268 cells at 10 uM after 48 hrs by sulforhodamine B assay relative to control; conditions: SF-268, 48 h, read-out: GI
# [12] = tested on: SF-539; experiment: Growth inhibition of human SF539 cells at 10 uM after 48 hrs by sulforhodamine B assay relative to control; conditions: SF-539, 48 h, read-out: GI
# [13] = tested on: SNB-19; experiment: Growth inhibition of human SNB19 cells at 10 uM after 48 hrs by sulforhodamine B assay relative to control; conditions: SNB-19, 48 h, read-out: GI
# [14] = tested on: SNB-75; experiment: Growth inhibition of human SNB75 cells at 10 uM after 48 hrs by sulforhodamine B assay relative to control; conditions: SNB-75, 48 h, read-out: GI
# [15] = tested on: U-251; experiment: Growth inhibition of human U251 cells at 10 uM after 48 hrs by sulforhodamine B assay relative to control; conditions: U-251, 48 h, read-out: GI
# [16] = tested on: LOX IMVI; experiment: Growth inhibition of human LOXIMVI cells at 10 uM after 48 hrs by sulforhodamine B assay relative to control; conditions: read-out: GI
# [17] = tested on: M14; experiment: Growth inhibition of human M14 cells at 10 uM after 48 hrs by sulforhodamine B assay relative to control; conditions: M14, 48 h, read-out: GI
# [18] = tested on: SK-MEL-2; experiment: Growth inhibition of human SK-MEL-2 cells at 10 uM after 48 hrs by sulforhodamine B assay relative to control; conditions: SK-MEL-2, 48 h, read-out: GI
# [19] = tested on: SK-MEL-28; experiment: Growth inhibition of human SK-MEL-28 cells at 10 uM after 48 hrs by sulforhodamine B assay relative to control; conditions: SK-MEL-28, 48 h, read-out: GI
# [20] = tested on: SK-MEL-5; experiment: Growth inhibition of human SK-MEL-5 cells at 10 uM after 48 hrs by sulforhodamine B assay relative to control; conditions: SK-MEL-5, 48 h, read-out: GI
# [21] = tested on: UACC-257; experiment: Growth inhibition of human UACC257 cells at 10 uM after 48 hrs by sulforhodamine B assay relative to control; conditions: UACC-257, 48 h, read-out: GI
# [22] = tested on: UACC-62; experiment: Growth inhibition of human UACC62 cells at 10 uM after 48 hrs by sulforhodamine B assay relative to control; conditions: UACC-62, 48 h, read-out: GI
# [23] = tested on: OVCAR-3; experiment: Growth inhibition of human OVCAR3 cells at 10 uM after 48 hrs by sulforhodamine B assay relative to control; conditions: OVCAR-3, 48 h, read-out: GI
# [24] = tested on: OVCAR-8; experiment: Growth inhibition of human OVCAR8 cells at 10 uM after 48 hrs by sulforhodamine B assay relative to control; conditions: OVCAR-8, 48 h, read-out: GI
# [25] = tested on: NCI/ADR-RES; experiment: Growth inhibition of human NCI-ADR-RES cells at 10 uM after 48 hrs by sulforhodamine B assay relative to control; conditions: read-out: GI
# [26] = tested on: 786-0; experiment: Growth inhibition of human 786-0 cells at 10 uM after 48 hrs by sulforhodamine B assay relative to control; conditions: 786-0, 48 h, read-out: GI
# [27] = tested on: A498; experiment: Growth inhibition of human A498 cells at 10 uM after 48 hrs by sulforhodamine B assay relative to control; conditions: A498, 48 h, read-out: GI
# [28] = tested on: CAKI-1; experiment: Growth inhibition of human CAKI-1 cells at 10 uM after 48 hrs by sulforhodamine B assay relative to control; conditions: CAKI-1, 48 h, read-out: GI
# [29] = tested on: SN12C; experiment: Growth inhibition of human SN12C cells at 10 uM after 48 hrs by sulforhodamine B assay relative to control; conditions: read-out: GI
# [30] = tested on: TK-10; experiment: Growth inhibition of human TK10 cells at 10 uM after 48 hrs by sulforhodamine B assay relative to control; conditions: TK-10, 48 h, read-out: GI
# [31] = tested on: PC-3; experiment: Growth inhibition of human PC3 cells at 10 uM after 48 hrs by sulforhodamine B assay relative to control; conditions: PC-3, 48 h, read-out: GI
# [32] = tested on: DU-145; experiment: Growth inhibition of human DU145 cells at 10 uM after 48 hrs by sulforhodamine B assay relative to control; conditions: DU-145, 48 h, read-out: GI
# [33] = tested on: MCF7; experiment: Growth inhibition of human MCF7 cells at 10 uM after 48 hrs by sulforhodamine B assay relative to control; conditions: MCF7, 48 h, read-out: GI
# [34] = tested on: MDA-MB-231; experiment: Growth inhibition of human MDA-MB-231 cells at 10 uM after 48 hrs by sulforhodamine B assay relative to control; conditions: MDA-MB-231, 48 h, read-out: GI
# [35] = tested on: Hs-578T; experiment: Growth inhibition of human Hs 578T cells at 10 uM after 48 hrs by sulforhodamine B assay relative to control; conditions: read-out: GI
# [36] = tested on: BT-549; experiment: Growth inhibition of human BT549 cells at 10 uM after 48 hrs by sulforhodamine B assay relative to control; conditions: BT-549, 48 h, read-out: GI
# [37] = tested on: MDA-MB-468; experiment: Growth inhibition of human MDA-MB-468 cells at 10 uM after 48 hrs by sulforhodamine B assay relative to control; conditions: MDA-MB-468, 48 h, read-out: GI
SMILES,inhibition of growth at 10 µM [1] [%],inhibition of growth at 10 µM [2] [%],inhibition of growth at 10 µM [3] [%],inhibition of growth at 10 µM [4] [%],inhibition of growth at 10 µM [5] [%],inhibition of growth at 10 µM [6] [%],inhibition of growth at 10 µM [7] [%],inhibition of growth at 10 µM [8] [%],inhibition of growth at 10 µM [9] [%],inhibition of growth at 10 µM [10] [%],inhibition of growth at 10 µM [11] [%],inhibition of growth at 10 µM [12] [%],inhibition of growth at 10 µM [13] [%],inhibition of growth at 10 µM [14] [%],inhibition of growth at 10 µM [15] [%],inhibition of growth at 10 µM [16] [%],inhibition of growth at 10 µM [17] [%],inhibition of growth at 10 µM [18] [%],inhibition of growth at 10 µM [19] [%],inhibition of growth at 10 µM [20] [%],other results
COc1cc(/C=C2\Oc3cc4occc4c(OC)c3C2=O)ccc1OCC(=O)Nc1ccccc1,67.1 to 79.6,67.1 to 79.6,67.1 to 79.6,67.1 to 79.6,67.1 to 79.6,67.1 to 79.6,67.1 to 79.6,67.1 to 79.6,67.1 to 79.6,67.1 to 79.6,67.1 to 79.6,67.1 to 79.6,67.1 to 79.6,67.1 to 79.6,67.1 to 79.6,67.1 to 79.6,67.1 to 79.6,67.1 to 79.6,67.1 to 79.6,67.1 to 79.6,inhibition of growth at 10 µM [21]: 67.1 to 79.6%; inhibition of growth at 10 µM [22]: 67.1 to 79.6%; inhibition of growth at 10 µM [23]: 67.1 to 79.6%; inhibition of growth at 10 µM [24]: 67.1 to 79.6%; inhibition of growth at 10 µM [25]: 67.1 to 79.6%; inhibition of growth at 10 µM [26]: 67.1 to 79.6%; inhibition of growth at 10 µM [27]: 67.1 to 79.6%; inhibition of growth at 10 µM [28]: 67.1 to 79.6%; inhibition of growth at 10 µM [29]: 67.1 to 79.6%; inhibition of growth at 10 µM [30]: 67.1 to 79.6%; inhibition of growth at 10 µM [31]: 67.1 to 79.6%; inhibition of growth at 10 µM [32]: 67.1 to 79.6%; inhibition of growth at 10 µM [33]: 67.1 to 79.6%; inhibition of growth at 10 µM [34]: 67.1 to 79.6%; inhibition of growth at 10 µM [35]: 67.1 to 79.6%; inhibition of growth at 10 µM [36]: 67.1 to 79.6%; inhibition of growth at 10 µM [37]: 67.1 to 79.6%
COc1ccc2c(c1)O/C(=C\c1ccc(OCC(=O)Nc3ccccc3)c(OC)c1)C2=O,18.9 to 27.1,18.9 to 27.1,18.9 to 27.1,18.9 to 27.1,18.9 to 27.1,18.9 to 27.1,18.9 to 27.1,18.9 to 27.1,18.9 to 27.1,18.9 to 27.1,18.9 to 27.1,18.9 to 27.1,18.9 to 27.1,18.9 to 27.1,18.9 to 27.1,18.9 to 27.1,18.9 to 27.1,18.9 to 27.1,18.9 to 27.1,18.9 to 27.1,inhibition of growth at 10 µM [21]: 18.9 to 27.1%; inhibition of growth at 10 µM [22]: 18.9 to 27.1%; inhibition of growth at 10 µM [23]: 18.9 to 27.1%; inhibition of growth at 10 µM [24]: 18.9 to 27.1%; inhibition of growth at 10 µM [25]: 18.9 to 27.1%; inhibition of growth at 10 µM [26]: 18.9 to 27.1%; inhibition of growth at 10 µM [27]: 18.9 to 27.1%; inhibition of growth at 10 µM [28]: 18.9 to 27.1%; inhibition of growth at 10 µM [29]: 18.9 to 27.1%; inhibition of growth at 10 µM [30]: 18.9 to 27.1%; inhibition of growth at 10 µM [31]: 18.9 to 27.1%; inhibition of growth at 10 µM [32]: 18.9 to 27.1%; inhibition of growth at 10 µM [33]: 18.9 to 27.1%; inhibition of growth at 10 µM [34]: 18.9 to 27.1%; inhibition of growth at 10 µM [35]: 18.9 to 27.1%; inhibition of growth at 10 µM [36]: 18.9 to 27.1%; inhibition of growth at 10 µM [37]: 18.9 to 27.1%
